Legend:
[1] = test system: proMMP-9/MMP-2PEX chimera; assay: tryptophan fluorescence titration with chimera; type: binding
Description: A blue shift in proMMP-9 tryptophan fluorescence was monitored to determine the binding affinity of all compounds. Binding of a test compound to MMP-9 was assayed by observing the change of tryptophan emission upon binding. Purified recombinant MMP-9 (50 nmol/L) or MMP-9/MMP-2PEX (50 nmol/L) was diluted in buffer (50 mmol/L Tris-HCl, 60 mmol/L KCl, and 0.05% Tween 20, pH 7.4) in the presence or absence of the test compound. As a control for protein stability and loss, an analogous buffer solution was added to the protein. The protein sample was excited at 280 nm and emission scans were collected from 290 to 400 nm, using slit widths of 0.3 nm on a QM 4/200SE spectrofluorimeter with double excitation and emission monochromators. Three emission scans were collected and averaged at each concentration. The Kd was determined using the Prism software package (GraphPad V5) to fit the data to Equation (Δ). λmax=(λmax^∞×[2])/(Kd+[2]) (A) in which λmax is the wavelength at which maximal fluorescence of the protein was observed.
A chimera of proMMP-9 and MMP-2 in which the MMP-9 PEX domain was replaced by that of MMP-2, (proMMP-9/MMP-2PEX) was tested for analog binding.

proMMP-9 [2] = target: T1, proMMP-9 (Homo sapiens, UniProt P14780); assay: saturated transfer difference (STD) NMR, proMMP-9; type: binding; conditions: saturation of 1.12 ppm resonance
T1 construct: Purified recombinant MMP-9 (50 nmol/L) or MMP-9/MMP-2PEX (50 nmol/L) was diluted in buffer
Description: As an additional test of binding selectivity, saturated transfer difference (STD) NMR was performed with purified recombinant proMMP-2 and proMMP-9 protein. ProMMP-2 and proMMP-9 are highly similar in structure and function, belonging to the same subfamily of MMPs known as the type IV collagenases and/or gelatinases. Thus proMMP-2 constitutes the best control for testing the selectivity of the PEX-9 inhibitor. Selective saturation of the 1.12 ppm resonance (proMMP-2 and proMMP-9) was used for STD NMR spectra. […] Thus, binding specificity is maintained upon increasing binding affinity.

[3] = test system: proMMP9-mediated migration of COS-1 cells; assay: two-dimensional dot migration assay, COS-1 cells stably expressing proMMP-9; type: cell-based
Description: (§1) To test whether compound 3c is specific for inhibiting only proMMP9-mediated migration, a two-dimensional dot migration assay was performed using COS-1 cells engineered to stably express vector control pQCXIP, proMMP-2, proMMP-9, or proMMP-14 cDNA vectors. An immunoblot was performed to confirm protein expression and proper localization of each MMP (MMP-2/-9 are secreted while MMP-14 is membrane bound).

[4] = test system: proMMP-2-mediated migration of COS-1 cells; assay: two-dimensional dot migration assay, COS-1 cells stably expressing proMMP-2; type: cell-based
Description: as §1

proMMP-9 [5] = target: T1, proMMP-9; assay: proMMP-9 tryptophan fluorescence blue shift binding assay
[6] = test system: HT1080 cells stably expressing GFP; assay: chorioallantoic membrane (CAM) assay, invasion; type: in vivo, chicken embryo; conditions: 100 μM stock solution (final estimated 0.5 μM), vs DMSO or 1f
Description: HT1080 cells stably expressing GFP were mixed with a type I collagen solution (3 mg/mL) and seeded atop the CAM to ensure the cells localized to a specific area. […] The invasion of cancer cells through the epithelium and basement membrane of the upper CAM into connecting tissue was examined by hematoxylin and eosin staining in addition to fluorescence microscopy for GFP^+ cells.

HT1080 cells [7] = assay: chorioallantoic membrane (CAM) assay, angiogenesis; type: in vivo, chicken embryo; conditions: 100 μM stock solution (final estimated 0.5 μM), 4-day incubation, vs DMSO and 1f
Description: A CAM assay was carried out to evaluate angiogenic and invasive potential of HT1080 cells after treatment with 3c. […] After a 4-day incubation, neovascularization was imaged and quantified.

[8] = target: T2, APMA-activated recombinant proMMP-9 (Homo sapiens, UniProt P14780); assay: MMP-9 catalytic activity with fluorogenic peptide; type: biochemical; conditions: 10 μM fluorogenic peptide, monitored over 2 hours
T2 construct: made in house
Description: Recombinant proMMP-9 protein was purified and incubated overnight in a 37° C. water bath in TNC buffer+1 mM APMA to artificially activate the protein.

HT1080 cells [9] = assay: cell adhesion to collagen or fibronectin coated plate; type: cell-based, Human; conditions: 37° C. 30 min
Description: A 96-well plate was coated with a thin layer of either collagen or fibronectin (5 μg/ml in PBS) substrate before use. HT1080 cells were then seeded onto wells and incubated at 37° C. for 30 min in the presence of various inhibitors. Wells were washed and cells were fixed in 4% paraformaldehyde and stained with DAPI. Images of each 96-well were microscopically captured and counted for the number of cells still adherent to the coated surface using automated computer software.

[10] = test system: proMMP9-mediated migration of COS-1 cells; assay: two-dimensional collagen dot migration assay, COS-1 cells overexpressing proMMP-9; type: cell-based; conditions: 50 μM
Description: This assay was initially used to test the efficacy of analogs at a single concentration, 50 μM.
Cells were mixed with type I collagen solution with or without compound, dotted onto a 96-well plate, and allowed to migrate for 18 hours. They were then fixed, stained and scored for extent of migration.

[11] = test system: COS-1 cells stably expressing vector control or proMMP-9; assay: acute cytotoxicity in COS-1 cells; type: cell-based; conditions: 50 μM, 24 hours, non-statistically significant
Description: Compound 3c was evaluated for acute cytotoxicity. COS-1 cells stably expressing either vector control or proMMP-9 cDNA were treated with 50 μM 3c for 24 hours. As negative and positive controls, cells were treated with DMSO alone or 100 nM staurosporine (STS), an apoptosis inducer, respectively. […] A non-statistically significant 8% decrease in cell growth occurred after treatment with 50 μM of compound 3c. These experiments were repeated in endogenous MMP-9 expressing HT1080 fibrosarcoma cells, which were analyzed for chronic toxicity (cells were re-treated every three days for a total of nine days).

[12] = test system: FAK and PAX adhesion junctions in HT1080 cells; assay: focal adhesion complexes, immunofluorescence in HT1080 cells; type: cell-based, Human; conditions: 50 μM overnight
[13] = test system: MMP-9 at the cell surface of HT1080 cells; assay: MMP-9 cell surface localization, immunofluorescence in HT1080 cells; type: cell-based, Human
Description: HT1080 cells were fixed in 4% paraformaldehyde then subsequently incubated with anti-MMP-9 in addition to anti-α4 and/or β1 integrin antibodies to monitor relative levels of localization of these proteins at the cell surface. The cells were counterstained with DAPI nuclear dye.

MMP-9 dimer = target: T3, MMP-9 dimer (Homo sapiens, UniProt P14780); assay: MMP-9 dimer formation, Myc/HA co-immunoprecipitation in HT1080 cells; type: cell-based; conditions: 50 μM overnight, compared to control compound 1f
T3 construct: expressed in transfected cells; host or cells: HT1080 human fibrosarcoma cells
Source text: Human fibroscarcoma HT1080 cells were co-transfected with MMP-9 cDNAs tagged with either a Myc or HA tag as previously reported. […] Using Myc antibody for immunoprecipitation and HA antibody for immunoblotting, the formation of dimeric MMP-9 was monitored.

T1 sequence (P14780 20-707 limits assumed): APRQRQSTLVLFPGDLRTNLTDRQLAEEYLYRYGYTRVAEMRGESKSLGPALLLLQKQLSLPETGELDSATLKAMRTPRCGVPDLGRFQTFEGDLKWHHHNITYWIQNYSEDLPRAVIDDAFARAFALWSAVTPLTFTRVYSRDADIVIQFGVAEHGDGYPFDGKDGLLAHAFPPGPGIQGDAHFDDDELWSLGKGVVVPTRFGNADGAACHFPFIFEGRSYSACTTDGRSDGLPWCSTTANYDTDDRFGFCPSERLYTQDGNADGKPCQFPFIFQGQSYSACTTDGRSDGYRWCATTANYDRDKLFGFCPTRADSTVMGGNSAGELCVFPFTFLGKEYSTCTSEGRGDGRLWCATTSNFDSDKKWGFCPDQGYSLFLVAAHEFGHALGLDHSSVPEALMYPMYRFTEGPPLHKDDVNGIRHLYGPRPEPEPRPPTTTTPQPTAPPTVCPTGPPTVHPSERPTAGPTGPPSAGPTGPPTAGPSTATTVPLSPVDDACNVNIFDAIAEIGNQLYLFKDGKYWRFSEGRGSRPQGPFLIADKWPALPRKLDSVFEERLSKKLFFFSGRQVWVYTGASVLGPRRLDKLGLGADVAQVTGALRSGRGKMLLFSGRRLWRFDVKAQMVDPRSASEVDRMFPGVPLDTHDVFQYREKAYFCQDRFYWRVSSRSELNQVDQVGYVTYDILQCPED
T3 sequence (P14780 94-707): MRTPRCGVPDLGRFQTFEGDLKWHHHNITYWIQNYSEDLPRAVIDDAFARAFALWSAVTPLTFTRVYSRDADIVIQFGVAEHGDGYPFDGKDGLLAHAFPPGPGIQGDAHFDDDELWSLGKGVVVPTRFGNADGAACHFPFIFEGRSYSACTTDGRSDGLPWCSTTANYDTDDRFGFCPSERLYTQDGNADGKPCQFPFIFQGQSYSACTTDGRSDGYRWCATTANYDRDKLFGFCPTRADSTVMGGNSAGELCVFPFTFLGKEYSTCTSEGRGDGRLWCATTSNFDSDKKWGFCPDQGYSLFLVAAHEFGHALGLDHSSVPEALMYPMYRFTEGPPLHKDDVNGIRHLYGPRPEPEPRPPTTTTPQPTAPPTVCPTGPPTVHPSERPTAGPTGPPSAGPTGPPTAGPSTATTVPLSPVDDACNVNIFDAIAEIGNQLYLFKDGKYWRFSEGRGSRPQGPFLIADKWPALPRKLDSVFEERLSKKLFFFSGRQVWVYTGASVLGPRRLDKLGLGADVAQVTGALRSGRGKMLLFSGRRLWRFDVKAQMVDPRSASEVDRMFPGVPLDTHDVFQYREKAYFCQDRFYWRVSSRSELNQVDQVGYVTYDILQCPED
T2 sequence (P14780 107-707 limits assumed): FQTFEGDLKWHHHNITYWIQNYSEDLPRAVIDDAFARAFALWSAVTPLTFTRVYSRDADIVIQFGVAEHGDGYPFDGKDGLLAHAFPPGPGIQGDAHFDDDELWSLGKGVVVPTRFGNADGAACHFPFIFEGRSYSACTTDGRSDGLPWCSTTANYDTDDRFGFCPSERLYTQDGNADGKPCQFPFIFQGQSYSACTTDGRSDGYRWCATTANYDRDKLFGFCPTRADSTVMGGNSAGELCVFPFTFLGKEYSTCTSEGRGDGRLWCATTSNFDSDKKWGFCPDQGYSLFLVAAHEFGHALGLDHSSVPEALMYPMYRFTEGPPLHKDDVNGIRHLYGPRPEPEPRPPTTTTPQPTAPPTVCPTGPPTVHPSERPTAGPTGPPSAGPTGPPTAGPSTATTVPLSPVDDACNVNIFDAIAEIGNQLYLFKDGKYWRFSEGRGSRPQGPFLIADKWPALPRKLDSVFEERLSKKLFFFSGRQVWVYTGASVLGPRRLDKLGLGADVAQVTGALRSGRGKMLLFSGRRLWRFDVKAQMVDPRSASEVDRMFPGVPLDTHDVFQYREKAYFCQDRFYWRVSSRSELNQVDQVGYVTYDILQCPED

In the case of O=C(CCCSc1nc2c(c(=O)[nH]1)CCCC2)Nc1ccc(F)cc1 [Compound 3c, N-(4-Fluorophenyl)-4-(4-oxo-3,4,5,6,7,8-hexahydroquinazolin-2-ylthio)butanamide], the “shift in fluorescence upon titration with chimera” value [1] is reported as “no shift in fluorescence was observed”, the “STD NMR peaks in presence of proMMP-9” value (proMMP-9 [2]) is reported as “STD peaks were observed” and the “effectiveness at inhibiting migration compared with 1a” value [3] is reported as “significantly more effective at inhibiting migration”. The “inhibition of proMMP-9-mediated migration” value [3] was “only inhibited proMMP9-mediated migration”, the “inhibition of proMMP-2-mediated migration” value [4] was “only inhibited proMMP9-mediated migration” and the “binding to proMMP-9 relative to parent compound 1a” value (proMMP-9 [5]; Kd compared with 1a) was “four times tighter”. The Kd (proMMP-9 [5]; binding to proMMP-9, tryptophan fluorescence) was 320 nM, the “invasion of CAM tissue” value [6] was “reduced invasion of CAM tissue” and the “angiogenic potential of HT1080 cells (neovascularization)” value (HT1080 cells [7]) was “significantly reduced the angiogenic potential of HT1080 cells”. The “inhibition of MMP-9 catalytic activity” value [8] was “No inhibition of the catalytic activity was observed”, the cellular adhesion (HT1080 cells [9]) was “inhibited cellular adhesion” and the “effectiveness among the tested compounds in migration assay” value [10] was “most effective”. The inhibition at 50 µM ([10]; Chlorocebus aethiops, 18 hours) was 90 ± 2%, the “decrease in cell growth” value [11] was 8% and the “formation of FAK and PAX adhesion junctions” value [12] was “A decrease in the formation of FAK and PAX adhesion junctions”. The “localization of MMP-9 on the cell surface” value [13] was “loss of MMP-9 from the cell surface” and the MMP-9 dimer formation (MMP-9 dimer) was “significantly blocked MMP-9 dimer formation”.
